{
  "source": "patent US20240226034A1",
  "about": "“Use of Terpenoids and Salicylates as Anesthetics and Analgesics” (THE REGENTS OF THE UNIVERSITY OF CALIFORNIA, priority 2021, published 2024)",
  "key": {"[1]": {"system": "Sprague Dawley rats", "assay": "Pilot study, single IV bolus injection, righting reflex and tail clamp response", "details": "for time to return of righting reflex: methyl salicylate: the 2 surviving rats", "procedure": "Solutions of 10% (v/v) L-carvone or methyl salicylate were prepared sterilely in 20% […]® (Fresenius Kabi, Lake Zurich, IL, USA). Lateral tail vein catheters were placed in twenty-one 69-day-old, male, Sprague Dawley rats weighing 291±17 (mean±SD) grams. Each rat received a single intravenous bolus injection of L-carvone solution (0.2 or 0.4 mL), methyl salicylate solution (0.1, 0.15, 0.2, or 0.4 mL), or a 1:1 mixture of the L-carvone and methyl salicylate solutions over 15 s. Because L-carvone density is 0.9673 g/cm^3 at 25° C., 0.2 mL and 0.4 mL of solution contained 19 mg and 39 mg of L-carvone, respectively (E. E. Royals & S. E. Horne, J. Am. Chem. Soc. 73, (1951): 5850).\nSpontaneous motor activity and loss-of-righting reflex was assessed at 5- to 10-s intervals, and nociception response to an alligator clamp applied to the tail was tested if the righting reflex was absent. […] Animals were weighed 24 and 48 h after the study and then euthanized for gross pathology examination."}, "[2]": {"molecular_target": "T1, GABAA receptors (human α1 GABRA1 and rat β2 GABRB2 subunits) (UniProt P14867+P63138)", "T1 construct": "expressed in transfected cells; host or cells: Xenopus laevis oocytes (intranuclear DNA injection)", "T1 sequence (P14867 28-456)": "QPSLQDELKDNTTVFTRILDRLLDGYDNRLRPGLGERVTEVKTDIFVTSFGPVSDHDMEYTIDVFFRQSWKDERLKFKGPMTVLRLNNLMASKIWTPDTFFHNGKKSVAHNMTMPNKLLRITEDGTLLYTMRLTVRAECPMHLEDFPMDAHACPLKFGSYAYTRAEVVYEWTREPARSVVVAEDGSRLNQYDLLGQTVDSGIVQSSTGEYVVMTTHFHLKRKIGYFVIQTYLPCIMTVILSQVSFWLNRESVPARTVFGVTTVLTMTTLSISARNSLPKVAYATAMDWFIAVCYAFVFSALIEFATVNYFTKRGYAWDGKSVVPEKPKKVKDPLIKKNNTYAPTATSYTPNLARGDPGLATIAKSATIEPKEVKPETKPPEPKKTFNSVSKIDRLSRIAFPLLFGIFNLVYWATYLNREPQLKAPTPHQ", "T1 sequence (P63138 25-474 limits assumed)": "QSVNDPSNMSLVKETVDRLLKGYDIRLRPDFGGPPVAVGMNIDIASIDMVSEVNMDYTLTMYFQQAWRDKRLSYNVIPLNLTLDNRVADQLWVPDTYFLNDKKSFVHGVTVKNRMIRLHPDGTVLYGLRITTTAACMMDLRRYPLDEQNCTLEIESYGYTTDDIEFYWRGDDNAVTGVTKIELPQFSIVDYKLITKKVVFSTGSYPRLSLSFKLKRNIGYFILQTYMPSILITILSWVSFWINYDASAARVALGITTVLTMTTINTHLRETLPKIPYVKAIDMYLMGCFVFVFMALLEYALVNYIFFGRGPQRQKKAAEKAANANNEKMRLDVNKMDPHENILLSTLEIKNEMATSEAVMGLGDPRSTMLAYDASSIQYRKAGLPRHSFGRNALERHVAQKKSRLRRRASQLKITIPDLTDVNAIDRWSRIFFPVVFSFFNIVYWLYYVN", "assay": "Two-electrode voltage clamp of GABAA receptors expressed in Xenopus oocytes", "assay_type": "cell-based", "details": "for effect on GABAA receptor currents: dose-response, oocytes", "description": "Ovaries removed from sexually mature Xenopus laevis frogs were bluntly dissected to remove surrounding connective tissue and then digested with 0.2% type I collagenase in an oocyte Ringer's solution. Once free from thecal cells and connective tissue, individual oocytes were rinsed, sorted, and stored in a modified Barth's solution (R. Brosnan et al., […]. 103, (2006): 86; L. Yang, P. S. Milutinovic, […]. Sonner, […]. 105, (2007): 393; […]. Fukushima, & […]. 44, (2017): 577; […], Pharmacology 103, (2019): 10). Heteromeric GABAA receptors were expressed in oocytes by blind intranuclear injection of 1 ng DNA encoding the human al (GABRA1) and rat B2 (GABRB2) subunits in a 1:1 ratio. NMDA receptors were expressed by intracytoplasmic injection of 5 ng RNA encoding rat NR1 (GRIN1) and rat NR2a (GRIN2A) subunits in a 1:1 ratio. Nax 1.2 channels were expressed by injection of 5 ng RNA encoding the human SCN2A gene. Two-electrode voltage clamp studies of GABAA receptors were carried out in a 0.25-mL linear perfusion chamber. Perfusates were delivered by using a syringe pump at 1.5 mL/min using gastight glass syringes and polytetrafluoroethylene tubing. […] King Precision Glass, Claremont, CA, USA) connected to separate […] (Axon Instruments HS2A; Molecular Devices, San Jose, CA, USA) through which voltage was clamped at -80 mV and current was passed via a computer-controlled amplifier (Axon Instruments GeneClamp 500B; Molecular Devices). Oocytes were perfused with frog Ringer's (FR) solution containing 115 mM NaCl, 2.5 mM KCl, 1.8 mM CaCl2), and 10 mM HEPES prepared from ACS-grade chemicals and 18.2 MΩ H2O, filtered and pH adjusted to 7.4. […] After 30 s, the perfusate was switched back to FR solution. This process was repeated until a stable baseline response was achieved. Next, FR containing either L-carvone (99%; Sigma-Aldrich, St. Louis, MO, USA) or methyl salicylate (>99%; Sigma-Aldrich) at the test concentration was used to perfuse the oocyte for 1.5 min, and then the oocyte was perfused with FR+GABA solution containing this same drug and concentration for 30 s. […] Uninjected oocytes served as negative controls. Only one drug and concentration were studied per oocyte. […] Percent change in current was calculated as follows: [formula] • where IB is the baseline pre-drug current peak and ID is the drug current peak. For each drug and ion channel, data were fit to a Hill equation using nonlinear regression with sequential quadratic programming and bootstrap estimates of parameter standard errors (SPSS, v. 27; IBM, Armonk, NY, USA). In the model, maximum drug inhibition (Imax) was constrained to not be less than -100%. Initial parameter estimates were seeded with values based on visual inspection of respective dose-response curves in order to facilitate model convergence."}, "[3]": {"details": "0.2 mL IV bolus of 10% emulsion"}, "[4]": {"details": "at the mean plasma concentration during IV infusion anesthesia in rats"}},
  "note": "pEC50, pIC50: −log10 of the molar value. Where “and” joins values, the source holds several entries; their conditions need not be identical. Equal values may be shown once. Entries after “also recorded” stand apart in the source; their conditions may differ.",
  "data": [
    {"molecule": "COC(=O)c1ccccc1O", "note": "[methyl salicylate]", "values": [
      {"measurement": "time to loss-of-righting reflex", "setting": "[1]; 0.1 mL IV bolus of 10% emulsion in 20% INTRALIPID, single rat", "result": 33, "unit": "s"},
      {"measurement": "general anesthesia (immobility in response to a tail clamp)", "setting": "[1]; 0.1 mL IV bolus, single rat", "result": "never resulted in general anesthesia"},
      {"measurement": "time to return-of-righting reflex", "setting": "[1]; 0.1 mL IV bolus, single rat", "result": 60, "unit": "s"},
      {"measurement": "time to anesthesia", "setting": "[1]; 0.15 mL IV bolus, N=4 rats", "result": "39 ± 2", "unit": "s"},
      {"measurement": "time to loss-of-righting", "setting": "[1]; 0.15 mL IV bolus, N=4 rats", "result": "35 ± 5", "unit": "s"},
      {"measurement": "time to normal ambulation without ataxia", "setting": "[1]; 0.15 mL IV bolus, N=4 rats", "result": "76 ± 10", "unit": "s"},
      {"measurement": "time to return from anesthesia (tail clamp response) after drug injection", "setting": "[1]; 0.15 mL IV bolus, N=4 rats", "result": "64 ± 8", "unit": "s"},
      {"measurement": "time to return of righting after drug injection", "setting": "[1]; 0.15 mL IV bolus, N=4 rats", "result": "53 ± 3", "unit": "s"},
      {"measurement": "time to walking and active / ambulating normally", "setting": "[1]; 0.2 mL IV bolus", "result": 110, "unit": "s"},
      {"measurement": "time to loss of tail clamp response (general anesthesia)", "setting": "[1]; [3]", "result": "37 ± 13", "unit": "s"},
      {"measurement": "time to loss-of-righting reflex", "setting": "[1]; [3]", "result": "35 ± 10", "unit": "s"},
      {"measurement": "time to return of righting reflex", "setting": "[1]; 0.2 mL IV bolus", "result": 58, "unit": "s"},
      {"measurement": "time to regain tail clamp response", "setting": "[1]; 0.2 mL IV bolus, the 2 surviving rats", "result": 48, "unit": "s"},
      {"measurement": "time to unconsciousness", "setting": "[1]; 0.4 mL IV bolus", "result": "20 ± 5", "unit": "s"},
      {"measurement": "body weight for the next two days, relative to baseline values", "setting": "[1]; rat, in vivo", "result": "97-98%"},
      {"measurement": "gross pathology / necropsy findings", "setting": "[1]; rat, in vivo", "result": "no gross abnormalities"},
      {"measurement": "potentiation of GABAA receptors", "setting": "[2]; [4]", "result": 30, "unit": "%"},
      {"measurement": "effect on GABAA receptor currents", "setting": "[2]", "result": "potently inhibited; also recorded: biphasic effect"},
      {"measurement": "pIC50", "setting": "[2]; high-affinity inhibitory site, 50 μM GABA, oocytes clamped at −80 mV, read-out: IC50, inhibition of GABAA receptor currents", "result": "6.96 and ~7.00"},
      {"measurement": "Hill coefficient, GABAA receptor potentiation site", "setting": "[2]; low-affinity binding", "result": "less than 1"},
      {"measurement": "concentration for second positive allosteric GABAA site relative to high-affinity site", "setting": "[2]; potentiation site vs inhibitory site", "result": "about 50,000 times"},
      {"measurement": "pEC50", "setting": "[2]; second site, high concentrations, read-out: median effective concentration, potentiation of GABAA currents", "result": 2.28}
    ]},
    {"molecule": "L-carvone", "values": [
      {"measurement": "body weight over the next 2 days, deviation from baseline", "setting": "[1]; 0.2 mL IV bolus", "result": "1.9±1.4", "unit": "%"},
      {"measurement": "time to walking and active / ambulating normally", "setting": "[1]; 0.2 mL IV bolus", "result": "60 ± 13", "unit": "s"},
      {"measurement": "time to loss of tail clamp response (general anesthesia)", "setting": "[1]; [3]", "result": "54 ± 11", "unit": "s"},
      {"measurement": "time to loss-of-righting reflex", "setting": "[1]; [3]", "result": "40 ± 6", "unit": "s"},
      {"measurement": "behavioural sign before loss-of-righting reflex", "setting": "[1]; 0.2 mL IV bolus, N=4 rats", "result": "transient excitement"},
      {"measurement": "duration of transiently decreased respiratory rate", "setting": "[1]; 0.2 mL IV bolus, N=4 rats", "result": "approximately 10 s"},
      {"measurement": "duration of whole-body muscle hypertonia", "setting": "[1]; 0.2 mL IV bolus, half of the rats", "result": 15, "unit": "s"},
      {"measurement": "time to return of righting reflex", "setting": "[1]; 0.2 mL IV bolus", "result": "58 ± 14", "unit": "s"},
      {"measurement": "time to cardiopulmonary arrest", "setting": "[1]; 0.4 mL IV bolus", "result": "35 ± 18", "unit": "s"},
      {"measurement": "time to unconsciousness", "setting": "[1]; 0.4 mL IV bolus", "result": "20 ± 4", "unit": "s"},
      {"measurement": "gross pathology / necropsy findings", "setting": "[1]; recovered animals (sublethal doses), 48 h after drug administration", "result": "no gross pathology findings"},
      {"measurement": "GABAA receptor current at highest concentration", "setting": "[2]; 10 mM drug", "result": "near or complete loss of channel currents; also recorded: almost entirely inhibited"},
      {"measurement": "inhibition of GABAA receptors", "setting": "[2]; [4]", "result": 96, "unit": "%"},
      {"measurement": "Hill coefficient, GABAA receptor inhibition", "setting": "[2]; dose-response model", "result": "~1"},
      {"measurement": "effect on GABAA receptor currents", "setting": "[2]", "result": "dose-dependent inhibition"}
    ]}
  ]
}
